# Measurements taken from patent US4855430A, “Polycyclicamine with psychotropic activity” (American Home Products Corporation, priority 1987, dated 1989).
# Where a name gives a salt, the structure may show the parent alone. Read-outs that look alike come from different tables or passages of the source.
# Legend:
# 5-HT1A receptor = settings: literature, in words; cited from earlier work
# [1] = West German Patent Application No. 3,321,969A; cited from earlier work
# [2] = molecular target: T1, 5-HT1A serotonin receptor (Rattus norvegicus, UniProt P19327); test: ex vivo inhibition of 5-HT1A serotonin receptor binding assay (3H-8-OH-DPAT, hippocampal tissue); settings: read-out: % Inhibition of 8-OH DPAT Binding at 1 μM
# T1 construct: Hippocampal tissue is dissected and homogenized on ice; from tissue; host or cells: rat hippocampus (membrane homogenate)
# T1 sequence (P19327 1-422): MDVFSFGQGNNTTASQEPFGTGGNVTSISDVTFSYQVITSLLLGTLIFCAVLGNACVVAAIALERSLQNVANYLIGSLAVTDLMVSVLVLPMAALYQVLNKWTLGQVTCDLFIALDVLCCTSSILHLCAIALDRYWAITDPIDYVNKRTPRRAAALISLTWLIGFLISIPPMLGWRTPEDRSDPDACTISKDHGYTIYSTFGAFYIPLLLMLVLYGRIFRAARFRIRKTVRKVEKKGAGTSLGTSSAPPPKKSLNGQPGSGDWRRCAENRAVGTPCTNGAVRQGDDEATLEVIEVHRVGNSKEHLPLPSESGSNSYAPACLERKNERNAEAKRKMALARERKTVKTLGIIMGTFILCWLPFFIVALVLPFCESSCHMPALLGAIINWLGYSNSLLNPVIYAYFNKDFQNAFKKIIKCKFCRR
# Method: The assay is carried out as follows:
# Several groups of rats (4-6 rats/group) are injected with test compound or the appropriate vehicle. Thirty minutes later, unless otherwise noted, rats are decapitated and their brains removed. Various brain regions are dissected and rapidly frozen and maintained at -70° C. until used.
# The homogenate is then centrifuged at 20,000 rpm (RC5-B; 40,000 g) and the supernatant discarded. The pellet is resuspended in 40 vols of the same buffer and incubated at 37° C. for 10 minutes to aid in the removal of endogenous serotonin. The homogenate is then centrifuged (as above) and the supernatant discarded. The pellet is then resuspended in 100 vols of buffer B (50 mM Tris HCl, pH=7.7 containing 0.1% ascorbate, 10 μM pargyline and 4 mM CaCl2) and sonicated. An aliquot is taken for protein determination by the Lowry method and the remainder stored frozen at -70° C. until used.
# The homogenate (50 μl; 0.4-0.6 mg protein/sample) is incubated with 100 μl (1.5-1.8 nM) ^3 H-8-hydroxy-2-(di-n-propylamino)tetraline in a final volume of 2 ml of buffer for 10 minutes at 37° C.
# Specific binding obtained in vehicle-treated rats is compared to that obtained in animals receiving a single or various doses of test compound and expressed as percent of control.
# [3] = molecular target: limbic D-2 dopamine receptor (Rattus norvegicus, UniProt P61169); test: inhibition of limbic D-2 dopamine receptor binding (3H-spiroperidol), in vitro; settings: read-out: % Inhibition of H3-Spiroperidol Binding at 1 μM
# Chain of limbic D-2 dopamine receptor (P61169 whole entry): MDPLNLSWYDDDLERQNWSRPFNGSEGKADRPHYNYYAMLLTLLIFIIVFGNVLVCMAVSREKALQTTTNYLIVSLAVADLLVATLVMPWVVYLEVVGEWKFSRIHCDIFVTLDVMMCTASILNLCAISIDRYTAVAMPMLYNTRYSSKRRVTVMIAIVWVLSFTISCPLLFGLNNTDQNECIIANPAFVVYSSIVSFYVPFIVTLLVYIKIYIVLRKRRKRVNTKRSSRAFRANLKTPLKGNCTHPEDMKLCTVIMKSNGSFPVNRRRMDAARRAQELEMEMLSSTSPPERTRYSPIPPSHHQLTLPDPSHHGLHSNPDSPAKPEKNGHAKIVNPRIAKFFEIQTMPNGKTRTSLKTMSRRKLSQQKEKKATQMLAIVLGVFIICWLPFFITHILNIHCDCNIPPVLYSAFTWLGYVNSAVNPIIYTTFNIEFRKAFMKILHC
# Method: The compounds of the invention are also studied for their ability to inhibit limbic D-2 dopamine receptor binding. This in vitro assay measures the ability of the compounds tested to bind to the dopamine receptor sites.
# The test is carried out as follows:
# Several rats are decapitated and the brains are rapidly removed. Limbic brain tissue (nucleus accumbens, septal area, olfactory tubercle) is dissected and homogenized on ice in 9 volumes of buffer (50 mM Tris-HCl, 120 mM NaCl, 5 mM KCl, 1 mM CaCl2, 1 mM MgCl2, 0.1% L-ascorbic acid, 10 μM pargyline HCl, pH 7.1) using a Polytron homogenizer at setting 5 for three 15-sec bursts. The homogenate is then diluted 4-fold with buffer and centrifuged at 30,000×g for 20 minutes, and the supernatant is discarded. The pellet is resuspended in the same volume of buffer and recentrifuged as before, again discarding the supernatant. This pellet is then resuspended in the same volume of buffer used in the homogenization, and the protein content of this preparation is assayed by the Lowry method. The homogenate is stored frozen at -70° C. until use.
# Thirty μl of the homogenate (0.2-0.3 mg protein/sample) are incubated with 0.3 mM ^3 H-spiroperidol (New England Nuclear) and various concentrations of test drug in a final volume of 1 ml of the above buffer for 10 minutes in a 37° C. water bath. At the end of the incubation, 3 ml of cold 50 mM Tris-HCl, pH 7.7, are added to each tube, and the contents are rapidly vacuum-filtered through Whatman GF/B glass-fiber filters. The filters are then rapidly washed 3 times with 3 ml of the same buffer, placed in scintillation vials, and shaken for 15 minutes with 10 ml of Hydrofluor (National Diagnostics) scintillation cocktail. The vials are then counted in a Packard 460 CD scintillation counter.
# Specific binding is defined as total binding less binding in the presence of 1 μM (+)butaclamol. Binding in the presence of various concentrations of test drug is expressed as a percent of specific binding when no drug is present. […] Ki (inhibition constant) for the test drug is then calculated by the formula: [formula]
# [4] = 1 μM, 3H-8-OH-DPAT, rat hippocampal tissue
structure (smiles),measurement,setting,value
"O=C1c2ccccc2S(=O)(=O)N1CCCCN1CCN(c2ncccn2)CC1 [TVX Q 7821, 2-[4-[4-(2-pyrimidinyl)-1-piperazinyl]butyl]-1,2-benzisothiazol-3-(2H)one1,1-dioxide hydrochloride]",binding at the 5-HT1A site,5-HT1A receptor,demonstrate binding at the 5-HT1A site
same,antidepressant activity,[1],possess antidepressant activity
"C1=CC2C3CCC3C1C1CN(CCc3ccc4ccccc4n3)CC21 (centres unmarked) [Example 4, 2,3,3a,4,4a,5,6,6a,7,7a-Decahydro-2-[2-(2-quinolinyl)ethyl]-4,7-etheno-2H-cyclobut[f]isoindole, dihydrochloride, hydrate]",inhibition at 1 µM,[2]; [4],97%
same,inhibition at 1 µM,[3],17%
"C1=CC2C3CCC3C1C1CN(CCc3ccccn3)CC21 (centres unmarked) [Example 6, 2,3,3a,4,4a,5,6,6a,7,7a-Decahydro-2-[2-(2-pyridinyl)ethyl]-4,7-etheno-1H-cyclobut[f]isoindole, dihydrochloride, 1/4 hydrate]",inhibition at 1 µM,[2]; [4],89%
same,inhibition at 1 µM,[3],3%
"c1ccc2nc(CCN3CC4CCC(CC4)C3)ccc2c1 [Example 12, 3-[2-(2-Quinolinyl)ethyl[-3-azabicyclo[3.2.2]nonane, dihydrochloride, dihydrate]",inhibition at 1 µM,[2],30%
"O=C(CCCN1CC2C3C=CC(CCC3)C2C1)c1ccc(F)cc1 (centres unmarked) [Example 3, 1-(4-Fluorophenyl)-4-(3,3a,4,5,6,7,8,8a-octahydro-4,8-ethenocyclohepta[c]pyrrol-2(1H)-yl)-1-butanone, hydrochloride, hydrate]",inhibition at 1 µM,[2],61%
same,inhibition at 1 µM,[3],100%
"Clc1cccc(N2CCN(CCCN3CC4C5C=CC(C6CCC56)C4C3)CC2)c1 (centres unmarked) [Example 9, 2-[3-[4-(3-Chlorophenyl)-1-piperazinyl]propyl]-2,3,3a,4,4a,5,6,7,7a-decahydro-4,7-etheno-1H-cyclobut[f]isoindole, trihydrochloride, dihydrate]",inhibition at 1 µM,[3],40%
"Clc1cccc(N2CCN(CCCN3CC4CCC(CC4)C3)CC2)c1 [Example 8, 3-[3-[4-(3-Chlorophenyl)-1-piperazinyl]propyl]-3-azabicyclo[3.2.2]nonane, dihydrochloride]",inhibition at 1 µM,[2],82%
same,inhibition at 1 µM,[3],11%
CCCC(C)C1(CC)C(=O)NC(=O)NC1=O (centres unmarked) [pentobarbital],binding at the 5-HT1A site,5-HT1A receptor,do not act via the 5-HT1A receptor
"O=C(CCCN1CC2C3C=CC(C4CC34)C2C1)c1ccc(F)cc1 (centres unmarked) [Example 10, 1-(4-Fluorophenyl)-4-(3,3a,4,4a,5,5a,6,6a-octahydro-4,6-ethenocycloprop[f]isoindole-2-(1H)-yl)-1-butanone, hydrochloride, sesquihydrate]",inhibition at 1 µM,[3],93%
"COc1ccccc1N1CCN(CCCN2CC3CCC(CC3)C2)CC1 [Example 13, 3-[3-[4-(2-Methoxyphenyl)-1-piperazinyl]propyl]-3-azabicyclo[3.2.2]nonane, trihydrochloride, 3/4 hydrate]",inhibition at 1 µM,[3],55%
"C1=CC2C1C1C=CC2C2CN(CCc3ccc4ccccc4n3)CC12 (centres unmarked) [Example 7, 2,3,3a,4,4a,6a,6,7,7a-Octahydro-2-[2-(2-quinolinyl)ethyl]4,7-etheno-1H-cyclobut[f]isoindole, dihydrochloride, 11/4 hydrate]",inhibition at 1 µM,[2]; [4],46%
"O=C1CC2(CCCC2)CC(=O)N1CCCCN1CCN(c2ncccn2)CC1 [buspirone, 8-[4-[4-(2-pyrimidinyl)-1-piperazinyl]butyl]-8-azaspiro[4.5]decane-7,9-dione]",binding at the 5-HT1A site,5-HT1A receptor,demonstrate binding at the 5-HT1A site
